From BindingDB's records for doi:10.1016/s0960-894x(03)00792-3 (Eli Lilly, 2003)
pIC50: −log10 of the molar value.

Legend:
[1] = biological target: cAMP-dependent protein kinase catalytic subunit alpha (Bos taurus, UniProt P00517); test: CDK Kinase Inhibition Assay; details: 25 °C
[2] = biological target: Cyclin-dependent kinase 4/G1/S-specific cyclin-D1 (Homo sapiens, UniProt P11802); test: CDK Kinase Inhibition Assay; details: pH 7; 22 °C
Chain of Cyclin-dependent kinase 4/G1/S-specific cyclin-D1 (P11802 whole entry): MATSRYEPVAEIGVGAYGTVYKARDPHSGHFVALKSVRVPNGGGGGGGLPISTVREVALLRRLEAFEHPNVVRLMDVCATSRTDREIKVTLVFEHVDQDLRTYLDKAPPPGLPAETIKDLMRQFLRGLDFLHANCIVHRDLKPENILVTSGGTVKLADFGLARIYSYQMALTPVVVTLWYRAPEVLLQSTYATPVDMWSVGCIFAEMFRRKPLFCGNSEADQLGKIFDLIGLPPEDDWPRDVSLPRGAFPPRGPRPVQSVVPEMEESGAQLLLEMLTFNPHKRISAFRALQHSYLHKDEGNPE
Chain of Cyclin-dependent kinase 4/G1/S-specific cyclin-D1 (P24385 whole entry, further chain): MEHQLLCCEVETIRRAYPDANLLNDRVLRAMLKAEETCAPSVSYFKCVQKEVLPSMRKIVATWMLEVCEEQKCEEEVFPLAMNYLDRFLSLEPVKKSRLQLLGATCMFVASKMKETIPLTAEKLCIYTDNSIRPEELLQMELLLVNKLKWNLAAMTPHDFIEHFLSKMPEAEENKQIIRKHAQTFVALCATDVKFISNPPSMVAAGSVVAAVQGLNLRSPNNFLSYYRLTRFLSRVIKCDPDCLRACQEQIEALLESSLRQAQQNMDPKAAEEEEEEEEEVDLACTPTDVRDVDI

Row | SMILES | pIC50 [1] | pIC50 [2]
1 | Cn1cc(C2=C(c3cn(CC(O)CO)c4ccccc34)C(=O)NC2=O)c2ccccc21 (stereo unspecified) [3-[1-(2,3-dihydroxypropyl)-1H-indol-3-yl]-4-(1-methyl-1H-indol-3-yl)-2,5-dihydro-1H-pyrrole-2,5-dione] | < 4.70 | –
2 | Cn1cc(C2=C(c3cn(C)c4ccccc34)C(=O)NC2=O)c2ccccc21 [3,4-bis(1-methyl-1H-indol-3-yl)-2,5-dihydro-1H-pyrrole-2,5-dione] | < 4.70 | –
3 | Cn1c2ccccc2c2c3c(c4c5ccc(F)cc5[nH]c4c21)C(=O)NC3=O [indolocarbazole deriv. 4(h)] | < 4.70 | –
4 | COC(=O)[C@@]1(O)C[C@H]2O[C@]1(C)n1c3ccccc3c3c4c(c5c6ccccc6n2c5c31)C(=O)NC4 | – | 7.52
5 | Cn1c2ccccc2c2c3c(c4c5ccc(Br)cc5[nH]c4c21)C(=O)NC3=O [indolocarbazole deriv. 4(f)] | < 4.70 | –
6 | O=C1NC(=O)c2c1c1c3ccccc3n3c1c1c2c2ccccc2n1[C@H]1CC[C@@H]3O1 [28-oxa-4,14,19-triazaoctacyclo[12.11.2.1^{15,18}.0^{2,6}.0^{7,27}.0^{8,13}.0^{19,26}.0^{20,25}]octacosa-1(26),2(6),7(27),8(13),9,11,20(25),21,23-nonaene-3,5-dione] | – | 6.27
7 | CN(C)CCCn1cc(C2=C(c3c[nH]c4ccccc34)C(=O)NC2=O)c2ccccc21 [2-[1-(3-dimethylaminopropyl)-indol-3-yl]-3-(indol-3-yl)maleimide] | < 4.70 | –
8 | O=C1NC(=O)c2c1c1c3ccccc3[nH]c1c1c2c2ccccc2n1CCCO [3-(3-hydroxypropyl)-3,13,23-triazahexacyclo[14.7.0.0^{2,10}.0^{4,9}.0^{11,15}.0^{17,22}]tricosa-1(16),2(10),4(9),5,7,11(15),17(22),18,20-nonaene-12,14-dione] | < 4.70 | –
9 | Cn1c2ccccc2c2c3c(c4c5ccccc5[nH]c4c21)C(=O)NC3=O [3-methyl-3,13,23-triazahexacyclo[14.7.0.0^{2,10}.0^{4,9}.0^{11,15}.0^{17,22}]tricosa-1(16),2(10),4(9),5,7,11(15),17(22),18,20-nonaene-12,14-dione] | < 4.70 | –
10 | O=C1NC(=O)c2c1c1c3ccccc3[nH]c1c1[nH]c3ccccc3c21 [6,7,12,13-Tetrahydro-5,7-dioxo-5H-indolo[2,3-a]pyrrolo[3,4-c]carbazole] | < 4.70 | –
11 | COc1ccc2c(c1)[nH]c1c3[nH]c4cc(OC)ccc4c3c3c(c21)C(=O)NC3=O [6,20-dimethoxy-3,13,23-triazahexacyclo[14.7.0.0^{2,10}.0^{4,9}.0^{11,15}.0^{17,22}]tricosa-1(16),2(10),4(9),5,7,11(15),17(22),18,20-nonaene-12,14-dione] | < 4.70 | –
